Usually IC50 stands for the concentration that inhibits the measured activity by half. Read a high IC50 as a need for much substance. Usually CC50 stands for the concentration giving 50% cytotoxicity. A low value points to greater toxicity to the cells.

Series [1] concerns the target Phosphatidylinositol 4,5-bisphosphate 3-kinase catalytic subunit gamma isoform (Homo sapiens, UniProt P48736). The series is described as follows: Inhibition of human PI3K 110gamma by fluorescence-based immunoassay.
Series [2] concerns the target PI3-kinase p110-alpha/p85-alpha (Homo sapiens, UniProt P42336). The series is described as follows: Inhibition of human PI3K p110alpha/p85alpha by fluorescence-based immunoassay. It counts as protein-complex assay.
Series [3] concerns the target T1, Phosphatidylinositol 4,5-bisphosphate 3-kinase catalytic subunit delta isoform (Homo sapiens, UniProt O00329).
T1 sequence (O00329 whole entry): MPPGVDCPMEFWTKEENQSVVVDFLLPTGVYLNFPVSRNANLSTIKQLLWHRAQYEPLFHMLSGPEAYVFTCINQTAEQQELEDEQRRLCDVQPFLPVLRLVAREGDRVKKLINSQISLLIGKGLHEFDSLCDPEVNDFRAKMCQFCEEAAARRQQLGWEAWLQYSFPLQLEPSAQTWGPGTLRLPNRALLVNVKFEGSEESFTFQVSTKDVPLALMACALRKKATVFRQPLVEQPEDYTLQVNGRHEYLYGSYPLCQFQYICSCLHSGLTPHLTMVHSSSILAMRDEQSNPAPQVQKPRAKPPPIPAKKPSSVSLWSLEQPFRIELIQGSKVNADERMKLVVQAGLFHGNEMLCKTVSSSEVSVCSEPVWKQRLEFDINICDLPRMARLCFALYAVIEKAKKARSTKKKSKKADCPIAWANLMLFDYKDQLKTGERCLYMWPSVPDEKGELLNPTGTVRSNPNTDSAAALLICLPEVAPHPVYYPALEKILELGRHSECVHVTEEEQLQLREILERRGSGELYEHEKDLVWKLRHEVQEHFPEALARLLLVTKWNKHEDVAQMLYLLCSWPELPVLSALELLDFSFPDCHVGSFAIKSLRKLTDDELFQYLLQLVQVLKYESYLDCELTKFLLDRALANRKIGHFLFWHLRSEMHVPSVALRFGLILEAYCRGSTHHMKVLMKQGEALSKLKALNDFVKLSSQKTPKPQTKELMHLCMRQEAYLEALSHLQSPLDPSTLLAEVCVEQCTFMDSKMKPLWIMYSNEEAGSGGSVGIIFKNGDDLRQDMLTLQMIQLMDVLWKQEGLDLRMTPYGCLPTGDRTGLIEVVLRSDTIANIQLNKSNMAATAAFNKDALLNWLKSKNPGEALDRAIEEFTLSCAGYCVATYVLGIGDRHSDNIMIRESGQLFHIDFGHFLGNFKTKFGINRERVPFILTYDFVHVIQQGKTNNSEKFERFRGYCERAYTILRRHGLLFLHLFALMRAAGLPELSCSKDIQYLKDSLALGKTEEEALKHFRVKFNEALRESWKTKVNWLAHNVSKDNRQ
The experiment in a line: Inhibition of human PI3Kdelta by fluorescence-based immunoassay.

The test system of another series is HeLa. The series is described as follows: Antiproliferative activity against human HeLa cells after 72 hrs by MTT assay. It counts as functional, cell-based.
The test system of another series is A549. The series is described as follows: Antiproliferative activity against human A549 cells after 72 hrs by MTT assay. It counts as functional, cell-based. To be noted: A549, 72 h. (Tetrazolium assays rely on reduction of a dye to a coloured formazan, in cell work by metabolically active cells.)
Series [4] concerns the target Phosphatidylinositol 3-kinase regulatory subunit beta/Phosphatidylinositol 4,5-bisphosphate 3-kinase catalytic subunit beta isoform (Homo sapiens, UniProt P42338). The experiment in a line: Inhibition of human PI3K p110beta/p85beta by fluorescence-based immunoassay. It is filed as protein-complex assay.
In another series the test system is MCF7. The series is described as follows: cells. Particulars: Homo sapiens, MCF7, 72 h.
A further series has as its system HepG2. The experiment in a line: cells. To be noted: Homo sapiens, HepG2, 72 h.
Series [5] can be described thus: Cytotoxicity against macrophages after 72 hrs by MTT assay. It counts as cell-based, Macrophage.

Each structure is given as a SMILES string. Where only a bound is given, the exact number is not on record here.

Phosphatidylinositol 4,5-bisphosphate 3-kinase catalytic subunit gamma isoform, sequence (P48736 whole entry, canonical isoform): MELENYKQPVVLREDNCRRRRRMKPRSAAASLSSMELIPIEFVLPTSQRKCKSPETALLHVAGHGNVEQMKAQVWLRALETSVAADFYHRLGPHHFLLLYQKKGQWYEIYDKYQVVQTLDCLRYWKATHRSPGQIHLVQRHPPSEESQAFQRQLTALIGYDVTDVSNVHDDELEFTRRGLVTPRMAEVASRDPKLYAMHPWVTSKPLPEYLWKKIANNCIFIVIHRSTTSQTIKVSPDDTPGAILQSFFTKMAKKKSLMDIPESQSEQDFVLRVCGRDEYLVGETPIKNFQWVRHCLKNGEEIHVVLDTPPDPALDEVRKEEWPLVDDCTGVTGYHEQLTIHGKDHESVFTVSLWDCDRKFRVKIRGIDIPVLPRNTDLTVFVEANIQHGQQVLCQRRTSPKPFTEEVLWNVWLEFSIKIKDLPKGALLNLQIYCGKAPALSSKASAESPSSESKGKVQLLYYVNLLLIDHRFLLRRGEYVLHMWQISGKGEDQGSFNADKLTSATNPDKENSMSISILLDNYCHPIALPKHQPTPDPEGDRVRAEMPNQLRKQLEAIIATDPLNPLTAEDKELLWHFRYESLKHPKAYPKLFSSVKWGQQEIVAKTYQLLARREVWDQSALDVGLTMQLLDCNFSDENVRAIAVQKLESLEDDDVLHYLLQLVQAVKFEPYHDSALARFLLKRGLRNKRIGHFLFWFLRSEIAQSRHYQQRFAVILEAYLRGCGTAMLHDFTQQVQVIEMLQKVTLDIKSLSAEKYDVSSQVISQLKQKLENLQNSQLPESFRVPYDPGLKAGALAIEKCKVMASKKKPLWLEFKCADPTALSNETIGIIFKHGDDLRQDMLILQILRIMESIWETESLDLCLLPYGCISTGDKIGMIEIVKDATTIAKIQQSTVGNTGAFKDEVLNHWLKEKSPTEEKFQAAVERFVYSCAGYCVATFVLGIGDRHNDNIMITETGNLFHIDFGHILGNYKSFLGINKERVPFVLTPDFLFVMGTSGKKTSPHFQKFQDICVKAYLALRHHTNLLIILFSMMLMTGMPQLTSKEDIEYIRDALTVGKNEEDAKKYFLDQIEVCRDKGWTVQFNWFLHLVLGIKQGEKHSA
PI3-kinase p110-alpha/p85-alpha, sequence (P27986 whole entry, canonical isoform): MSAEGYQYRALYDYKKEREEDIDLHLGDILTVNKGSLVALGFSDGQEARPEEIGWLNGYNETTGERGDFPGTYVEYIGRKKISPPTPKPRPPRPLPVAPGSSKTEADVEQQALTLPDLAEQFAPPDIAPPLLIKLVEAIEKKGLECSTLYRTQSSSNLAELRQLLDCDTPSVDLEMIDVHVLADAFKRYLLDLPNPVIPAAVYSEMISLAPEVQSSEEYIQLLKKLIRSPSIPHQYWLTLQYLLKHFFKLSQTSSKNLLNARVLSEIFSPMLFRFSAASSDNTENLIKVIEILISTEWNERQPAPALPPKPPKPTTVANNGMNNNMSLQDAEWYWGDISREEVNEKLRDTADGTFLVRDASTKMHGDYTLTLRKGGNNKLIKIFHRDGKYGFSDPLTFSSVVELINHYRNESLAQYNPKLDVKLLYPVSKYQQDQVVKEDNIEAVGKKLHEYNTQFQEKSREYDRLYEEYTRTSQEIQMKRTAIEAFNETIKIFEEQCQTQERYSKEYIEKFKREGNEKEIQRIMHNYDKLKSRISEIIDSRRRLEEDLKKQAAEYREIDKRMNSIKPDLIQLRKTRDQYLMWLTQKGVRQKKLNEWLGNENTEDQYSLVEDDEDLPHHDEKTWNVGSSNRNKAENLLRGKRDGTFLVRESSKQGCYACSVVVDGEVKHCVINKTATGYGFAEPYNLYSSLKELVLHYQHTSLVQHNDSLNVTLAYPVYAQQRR
PI3-kinase p110-alpha/p85-alpha, sequence (P42336 whole entry, canonical isoform): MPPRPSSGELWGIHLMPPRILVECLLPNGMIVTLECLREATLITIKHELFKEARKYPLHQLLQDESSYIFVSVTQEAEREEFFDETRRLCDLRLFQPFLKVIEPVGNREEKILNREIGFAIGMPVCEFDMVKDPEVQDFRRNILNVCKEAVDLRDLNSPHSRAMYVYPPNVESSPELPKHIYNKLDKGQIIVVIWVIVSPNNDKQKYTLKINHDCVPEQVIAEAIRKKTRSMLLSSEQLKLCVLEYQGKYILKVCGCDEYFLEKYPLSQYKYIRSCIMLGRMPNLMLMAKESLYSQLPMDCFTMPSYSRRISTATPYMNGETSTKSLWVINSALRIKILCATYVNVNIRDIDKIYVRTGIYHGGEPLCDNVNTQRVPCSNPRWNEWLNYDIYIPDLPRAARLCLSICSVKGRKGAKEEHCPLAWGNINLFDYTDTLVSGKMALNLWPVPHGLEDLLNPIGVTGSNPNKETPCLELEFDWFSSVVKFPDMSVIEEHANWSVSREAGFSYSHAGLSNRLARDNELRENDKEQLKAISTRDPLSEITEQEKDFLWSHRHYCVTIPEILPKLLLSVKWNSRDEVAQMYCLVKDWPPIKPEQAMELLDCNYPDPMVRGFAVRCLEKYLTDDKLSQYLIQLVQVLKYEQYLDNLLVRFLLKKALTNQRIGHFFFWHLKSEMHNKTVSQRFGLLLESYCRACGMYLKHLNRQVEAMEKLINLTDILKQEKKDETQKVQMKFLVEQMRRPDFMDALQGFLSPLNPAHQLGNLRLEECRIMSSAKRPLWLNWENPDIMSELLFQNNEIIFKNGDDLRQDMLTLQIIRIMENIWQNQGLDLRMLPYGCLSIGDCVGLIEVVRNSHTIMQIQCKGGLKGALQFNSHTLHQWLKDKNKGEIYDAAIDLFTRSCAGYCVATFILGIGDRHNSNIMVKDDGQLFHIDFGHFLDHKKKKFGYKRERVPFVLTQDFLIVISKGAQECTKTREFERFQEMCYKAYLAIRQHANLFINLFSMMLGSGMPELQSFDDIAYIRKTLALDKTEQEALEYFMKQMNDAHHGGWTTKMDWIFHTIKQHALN
Phosphatidylinositol 3-kinase regulatory subunit beta/Phosphatidylinositol 4,5-bisphosphate 3-kinase catalytic subunit beta isoform, sequence (P42338 whole entry, canonical isoform): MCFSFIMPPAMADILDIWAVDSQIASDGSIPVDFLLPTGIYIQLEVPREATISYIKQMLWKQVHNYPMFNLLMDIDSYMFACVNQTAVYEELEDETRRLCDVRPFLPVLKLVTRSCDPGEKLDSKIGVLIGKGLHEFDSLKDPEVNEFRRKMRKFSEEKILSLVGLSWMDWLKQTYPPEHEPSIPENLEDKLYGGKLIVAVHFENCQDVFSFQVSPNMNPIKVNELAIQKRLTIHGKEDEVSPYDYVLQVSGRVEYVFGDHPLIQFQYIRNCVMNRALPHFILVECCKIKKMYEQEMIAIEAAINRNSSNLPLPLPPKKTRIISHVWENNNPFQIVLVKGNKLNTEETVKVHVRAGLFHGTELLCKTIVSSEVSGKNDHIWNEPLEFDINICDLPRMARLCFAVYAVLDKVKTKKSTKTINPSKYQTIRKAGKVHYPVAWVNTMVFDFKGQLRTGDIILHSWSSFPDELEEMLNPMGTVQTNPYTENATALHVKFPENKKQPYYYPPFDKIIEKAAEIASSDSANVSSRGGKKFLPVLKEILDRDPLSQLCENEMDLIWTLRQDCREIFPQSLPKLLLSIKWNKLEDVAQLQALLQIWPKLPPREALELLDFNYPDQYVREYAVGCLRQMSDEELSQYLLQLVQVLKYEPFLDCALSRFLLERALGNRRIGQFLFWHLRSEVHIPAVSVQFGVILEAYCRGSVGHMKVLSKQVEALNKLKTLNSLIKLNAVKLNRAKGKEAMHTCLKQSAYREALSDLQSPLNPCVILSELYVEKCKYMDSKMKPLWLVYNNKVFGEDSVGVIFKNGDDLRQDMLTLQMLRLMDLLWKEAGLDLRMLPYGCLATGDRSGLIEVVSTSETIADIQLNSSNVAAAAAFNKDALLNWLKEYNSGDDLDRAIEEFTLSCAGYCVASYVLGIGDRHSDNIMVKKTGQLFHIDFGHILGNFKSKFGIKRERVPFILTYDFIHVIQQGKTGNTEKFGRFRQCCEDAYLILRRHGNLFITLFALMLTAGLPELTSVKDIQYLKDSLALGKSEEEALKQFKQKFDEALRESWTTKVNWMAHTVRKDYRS
Phosphatidylinositol 3-kinase regulatory subunit beta/Phosphatidylinositol 4,5-bisphosphate 3-kinase catalytic subunit beta isoform, sequence (O00459 whole entry, further chain, canonical isoform): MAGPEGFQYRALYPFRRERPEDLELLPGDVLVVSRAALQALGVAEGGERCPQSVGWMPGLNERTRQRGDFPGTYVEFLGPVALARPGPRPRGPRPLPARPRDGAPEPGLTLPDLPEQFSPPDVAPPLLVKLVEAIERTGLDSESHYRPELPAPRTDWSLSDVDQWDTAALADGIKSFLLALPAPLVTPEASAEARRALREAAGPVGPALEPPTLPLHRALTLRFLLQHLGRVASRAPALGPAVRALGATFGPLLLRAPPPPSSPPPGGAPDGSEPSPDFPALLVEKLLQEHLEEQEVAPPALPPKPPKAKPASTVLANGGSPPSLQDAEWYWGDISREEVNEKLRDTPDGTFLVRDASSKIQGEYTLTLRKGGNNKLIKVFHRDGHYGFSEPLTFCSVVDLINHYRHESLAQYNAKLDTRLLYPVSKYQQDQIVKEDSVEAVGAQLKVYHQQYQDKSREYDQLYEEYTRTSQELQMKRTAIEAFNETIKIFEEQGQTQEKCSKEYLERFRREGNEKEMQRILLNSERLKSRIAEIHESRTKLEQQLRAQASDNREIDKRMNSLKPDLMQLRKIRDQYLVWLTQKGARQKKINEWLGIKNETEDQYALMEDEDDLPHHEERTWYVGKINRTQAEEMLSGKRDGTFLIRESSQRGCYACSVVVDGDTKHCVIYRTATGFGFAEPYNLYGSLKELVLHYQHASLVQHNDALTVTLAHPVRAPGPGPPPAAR

Regarding `CCn1cc(C(=O)O)c(=O)c2cc(F)c(N3CCN(C(=O)c4ccc(OC)nc4)CC3)cc21`, the IC50 was 0.279 µM in [1]; > 1 µM in series [2]; > 1 µM in [3]; 154 µM in the series on HeLa; > 1000 µM with A549; > 1 µM in [4]. Further, the concentration for half-maximal inhibition (IC50) worked out at 357 µM with MCF7 and 426 µM in the series with HepG2.
Consider `O=C(O)c1cn(C2CC2)c2cc(N3CCN(C(=O)c4cc(Cl)ccc4O)CC3)c(F)cc2c1=O`, for which the half-inhibitory concentration (IC50) in [1] is 0.174 µM; in [2], 0.963 µM; in series [3] it was 0.553 µM; in the series on HeLa, 64.2 µM; in the series with A549, 114 µM; in series [4], > 1 µM. Moreover, the half-inhibitory concentration (IC50) in the series with MCF7 is 88.4 µM; with HepG2 it was 50.6 µM. Moreover, the CC50 at 72 h in series [5] is 269 µM.
In the case of `O=C(O)c1cn(C2CC2)c2cc(N3CCN(C(=O)c4cc([N+](=O)[O-])cc([N+](=O)[O-])c4O)CC3)c(F)cc2c1=O`, the IC50 in [1] was 0.056 µM; in series [2] it was 0.356 µM; in series [3], 0.271 µM; in the series on HeLa it was 0.06 µM; with A549, 0.67 µM; in series [4], > 1 µM. Moreover, the IC50 with MCF7 came out at 0.11 µM; in the series on HepG2, 0.29 µM. In [5], this compound registered a CC50 at 72 h of 365 µM.
With `O=C(O)c1cn(C2CC2)c2cc(N3CCN(C(=O)c4cc([N+](=O)[O-])ccc4O)CC3)c(F)cc2c1=O`, the IC50 in series [1] was 0.185 µM; in series [2], 0.591 µM; in series [3], 0.722 µM; in the series on HeLa, 25.8 µM; in the series with A549, 87.1 µM; in [4], > 1 µM. The IC50 amounted to 47.9 µM in the series with MCF7 and 122 µM in the series with HepG2. The same compound came in with a CC50 at 72 h in series [5] of 297 µM.
For the compound `COc1ccc(C(=O)N2CCN(c3cc4c(cc3F)c(=O)c(C(=O)O)cn4C3CC3)CC2)c(O)c1`, the IC50 in series [1] was 0.089 µM; in [2], 0.642 µM; in series [3], 0.348 µM; with HeLa it was 0.16 µM; in the series with A549, 0.85 µM; in series [4] it was > 1 µM. The IC50 in the series on MCF7 was 0.33 µM; with HepG2, 2.59 µM. In [5], this compound returned a CC50 at 72 h of 311 µM.
Take `CCn1cc(C(=O)O)c(=O)c2cc(F)c(N3CCN(C(=O)c4cccnc4Cl)CC3)cc21`: the IC50 in [1] was 0.259 µM; in series [2], > 1 µM; in series [3], > 1 µM; with HeLa, 88.9 µM; in the series on A549 it was 279 µM; in series [4], > 1 µM. For the same compound, the values for the IC50 in the series with MCF7 and with HepG2 were 212 µM and > 1000 µM, respectively.
On to `CCn1cc(C(=O)O)c(=O)c2cc(F)c(N3CCN(C(=O)c4cc(Cl)ccc4O)CC3)cc21`, for which the IC50 in series [1] is 0.098 µM; in series [2], 0.712 µM; in series [3], 0.311 µM; with HeLa, 0.96 µM; in the series on A549, 1.55 µM; in [4], > 1 µM. Further, the concentration for half-maximal inhibition (IC50) turned out to be 1.21 µM with MCF7 and 2.94 µM in the series on HepG2. The same compound returned a CC50 at 72 h in [5] of 273 µM.
For the compound `O=C(O)c1cn(C2CC2)c2cc(N3CCN(C(=O)c4cccnc4Cl)CC3)c(F)cc2c1=O`, the IC50 in [1] is 0.265 µM; in series [2] it was > 1 µM; in series [3], > 1 µM; in the series on HeLa, 279 µM; in the series on A549, > 1000 µM; in series [4] it was > 1 µM. Further, the results for the IC50 in the series with MCF7 and in the series with HepG2 were 153 µM and 179 µM, respectively.
In the case of `CCn1cc(C(=O)O)c(=O)c2cc(F)c(N3CCN(C(=O)c4cc(OC)ccc4O)CC3)cc21`, the concentration for half-maximal inhibition (IC50) is 0.112 µM in [1]; 0.698 µM in [2]; 0.489 µM in [3]; 2.11 µM in the series on HeLa; 1.06 µM in the series with A549; > 1 µM in series [4]. Also, the IC50 with MCF7 amounted to 3.79 µM; in the series on HepG2 it was 0.47 µM. This compound gave a CC50 at 72 h in series [5] of 279 µM.
Take `CCn1cc(C(=O)O)c(=O)c2cc(F)c(N3CCN(C(=O)c4c(C)cccc4O)CC3)cc21`: the IC50 is 0.173 µM in series [1]; 0.914 µM in series [2]; 0.683 µM in [3]; 53.3 µM in the series with HeLa; 121 µM in the series with A549; > 1 µM in series [4]. The figures for the concentration for half-maximal inhibition (IC50) with MCF7 and in the series on HepG2 were 107 µM and 27.9 µM, respectively. In addition, in series [5], the cytotoxic concentration (CC50) at 72 h is 343 µM.
Regarding `O=C(O)c1cn(C2CC2)c2cc(N3CCN(C(=O)c4cc(Br)ccc4O)CC3)c(F)cc2c1=O`, the IC50 is 0.169 µM in [1]; 0.894 µM in series [2]; 0.674 µM in series [3]; 19.6 µM with HeLa; 77 µM with A549; > 1 µM in series [4]. Moreover, the figures for the IC50 in the series on MCF7 and in the series with HepG2 were 22.1 µM and 36.7 µM, respectively. The same compound came in with a CC50 at 72 h in [5] of 289 µM.
With `CCn1cc(C(=O)O)c(=O)c2cc(F)c(N3CCN(C(=O)c4cc(Br)ccc4O)CC3)cc21`, the half-inhibitory concentration (IC50) in series [1] is 0.111 µM; in series [2], 0.695 µM; in series [3], 0.474 µM; with HeLa, 0.51 µM; in the series with A549 it was 0.99 µM; in series [4], > 1 µM. Further, the IC50 with MCF7 is 7.03 µM; in the series on HepG2 it was 3.22 µM. Also, in [5], half-maximal cytotoxicity (CC50 at 72 h) was put at 266 µM.
As to `COc1ccc(C(=O)N2CCN(c3cc4c(cc3F)c(=O)c(C(=O)O)cn4C3CC3)CC2)cn1`, the IC50 in series [1] is 0.285 µM; in series [2], > 1 µM; in series [3] it was > 1 µM; with HeLa, 344 µM; in the series on A549, 680 µM; in [4], > 1 µM. The IC50 in the series with MCF7 turned out to be 42.2 µM; in the series with HepG2, 65.9 µM.
As to `CC[C@H](Nc1ncnc2[nH]cnc12)c1nc2cccc(F)c2c(=O)n1-c1ccccc1` [IDELALISIB], the IC50 in the series on HeLa was determined as 0.15 µM; with A549, 0.33 µM; with MCF7, 0.78 µM.

Source of the values: ChEMBL document CHEMBL3769326, “Discovery of fluoroquinolone derivatives as potent, selective inhibitors of PI3K” (Medchemcomm, 2015).
